From patent US12668830B2, “Pharmaceutical compositions for prevention and/or treatment of infections and antibacterial-induced dysfunctions” (priority 2018, dated 2026)
“Also recorded” adds a separate entry of the source. Like-named read-outs stand apart in the source and are kept apart here.

What was measured:
[1] = tested on: MDR clinical isolates Klebsiella pneumoniae 718, 929 and 980; experiment: 8×8 checkerboard assays against MDR clinical isolates; format: cell-based; settings: MDR K. pneumoniae isolates
Text: (§1) For each of the three Gram-negative species profiled in this study, the inventors used two broadly used and sequenced strains: Escherichia coli K-12 BW25113 and O8 IAI1, Salmonella enterica serovar typhimurium LT2 and 14028s, Pseudomonas aeruginosa PAO1 and PA14. To validate selected synergies, the inventors profiled 6 MDR clinical Enterobacteriaceae isolates recovered from human patient specimens: E. coli 124, 1027, 1334 and Klebsiella pneumoniae 718, 929 and 980.

[2] = tested on: MDR clinical isolates E. coli 124, 1027, 1334; experiment: as above; format: cell-based, Escherichia coli
Text: as §1

[3] = tested on: E. coli, S. typhimurium and P. aeruginosa; experiment: Screen across all three species / conservation of drug-drug interactions; format: cell-based; settings: for General effect in combinations: conserved interaction network; for Antibacterial activity / growth inhibition of the drug on its own: single drug, in the screen
Protocol: Conservation of drug-drug interactions between strains of the same species was assessed by Pearson correlation of the interactions scores ε. For potentially non-conserved drug-drug interactions, the expected fitness distributions of the two strains were taken into account.
To assess the cross-species conservation of drug-drug interactions, the inventors took into account only drug pairs that were probed in all three species. […] Interactions were then compared across the three species. Cases in which an interaction between drugs changed sign across species (conflicting interactions; ˜7% of all interactions) were excluded from the comparative “across-species” Venn diagram (FIG. 3D). Note that with current analysis a given drug-drug interaction may be conserved across species, but not conserved within the species.
Conservation at the single drug level was defined based on shared resistance and sensitivity. A strain was considered sensitive to a given drug if one of the drug concentrations inhibited growth for at least 30%.

[4] = tested on: E. coli BW and E. coli iAi1; experiment: Benchmarking 8×8 checkerboard assays (Bliss / Loewe additivity); format: cell-based, Escherichia coli; settings: 8×8 checkerboards
Text: For combinations between ß-lactams for which high-resolution 8×8 checkerboards with sufficient growth inhibition was available in the validation dataset, Loewe additivity was used to confirm the interactions. Drug-drug interactions were inferred by the shape of the isoboles (lines of equal growth) in two-dimensional drug concentration plots. […] To interpolate IC50 concentrations (or other ICn %), a logistic model was used to fit the growth for each concentration of the first drug across different concentrations of the second drug. The null-hypothesis of this model is represented by the additivity line: a linear isobole connecting equal individual IC's by the two drugs.
As in the screen, growth was assessed based on OD595 nm at early stationary phase for the no drug controls. The time-points used in the screen were used again here for screen strains, whereas 8 hours were used for all E. coli and K. pneumoniae MDR isolates. Fitness was calculated by dividing OD595 nm after single or double drug treatment by no drug treatment for each individual checkerboard. Bliss scores (ε) were calculated for all concentration ratios tested per drug combination, resulting in 49 ε values per drug pair. […] Antagonism was called when the median of the & distribution was above 0.1 or the Q3 was above 0.15. […]

[5] = tested on: E. coli (BW25113 wildtype and mutants); experiment: Minimal Inhibitory Concentration (MIC) calculation; format: cell-based, Escherichia coli; settings: for Effect on MIC of chloramphenicol / Effect on MIC of ciprofloxacin: vanillin 150 μg/ml, aspirin 500 μg/ml, E. coli; for MIC: Escherichia coli
Protocol: MICs to all drugs were computed using a logistic fit of growth (OD595 nm for 8 h) over 2-fold serial dilutions of the antibiotic concentrations for all strains used for the high throughput screening and follow-up experiments.

[6] = tested on: E. coli BW mutants (ΔacrA, respiration-defective); format: cell-based, Escherichia coli; settings: ciprofloxacin 70% MIC
Protocol: Aminoglycosides depend on PMF-energized uptake and thus respiratory complexes; ciprofloxacin is effluxed by AcrAB-TolC. […] Bliss interaction scores (ε) were calculated as in the screen and are represented by the mean and standard deviation across 3-8 replicates. d) Gentamicin and ciprofloxacin antagonism networks for E. coli BW. Nodes represent drugs colored according to targeted cellular process (as FIG. 1a). Full and dashed edges represent antagonistic drug-drug interactions for which intracellular antibiotic concentration was and was not measured, respectively. […] The bars for fluoroquinolones and aminoglycosides account for an extrapolation of antagonistic interactions to all other members of the two classes, assuming they behave the same as ciprofloxacin and gentamicin, respectively.
The kanamycin resistance cassettes was excised when necessary using the plasmid pCP20. The plasmid used for mdfA overexpression was obtained from the mobile E. coli ORF library.

[7] = tested on: AcrA; experiment: Immunoblot analysis for AcrA protein quantification; format: cell-based, Escherichia coli; settings: vanillin 150 μg/ml; marA-dependent
Protocol: Overnight cultures of E. coli BW25113 and the ΔmarA mutant were diluted 1:1,000 into 50 ml LB containing 500 μg/ml aspirin, 150 μg/ml vanillin or DMSO (drugs solvent control), followed by growth with agitation at 37° C. to OD595 nm˜0.5. Cells were washed in PBS containing corresponding drugs or DMSO, then resuspended to match OD595 nm=1. Cell pellets were resuspended in Laemmli buffer and heated to 95° C. for 3 minutes followed by immunoblot analysis with a-AcrA polyclonal antiserum (gift from K. M. Pos) at 1:200,000 dilution. Primary antiserum was detected using anti-rabbit HRP (A0545 Sigma) at 1:5,000 dilution. Pixel densities of bands were quantified using ImageJ. At least five different biological replicates were blotted and summarized by their mean and standard deviation.

[8] = tested on: E. coli BW25113; experiment: Intracellular spectinomycin concentration with [3H]-spectinomycin; format: cell-based, Escherichia coli; settings: vanillin 150 μg/ml; mdfA-dependent
Protocol: Intracellular spectinomycin was quantified by measuring [3H]-spectinomycin (1 μCi/mg; Hartmann Analytic Corp.). Overnight cultures of E. coli BW25113 were diluted 1:1,000 into 1 ml LB with and without vanillin (150 μg/ml) and grown to OD595 nm˜0.5. 50 μg/ml [3H]-spectinomycin:spectinomycin 1:100 was added and the cultures were incubated for 1 h. Cultures were pelleted, washed twice with PBS with 50 μg/ml non-labeled spectinomycin, re suspended in 1% SDS and incubated for 20 min at 85° C. The lysate was mixed with 8 ml liquid scintillation (Perkin Elmer ULTIMA Gold) and counted for 1 min using a Perkin Elmer Tri-Carb 2800TR. Measured radioactivity was normalized to cell number as measured by OD595 nm.

[9] = tested on: marA; experiment: Quantitative RT-PCR of marA expression; format: cell-based, Escherichia coli; settings: vanillin 150 μg/ml
Protocol: Overnight cultures of E. coli BW25113 and the marR deletion mutant were diluted 1:2,000 into 20 ml LB and grown at 37° C. to OD595 nm˜0.2. Aspirin or vanillin were added to the cultures to 500 and 150 μg/ml final concentration respectively (DMSO was added in the control), followed by a 30 min incubation period at 37° C. with agitation. Cells were harvested and RNA extraction was done with the RNeasy Protect Bacteria Mini Kit (Qiagen) according to manufacturer's directions. cDNA was prepared for qRT-PCR using SuperScript™ III Reverse Transcriptase (Thermo Fisher Scientific). marA and mdfA expression levels were estimated by quantitative RT-PCR using SYBR™ Green PCR master mix following the manufacturer's instructions (Thermo Fisher Scientific). Primer sequences for marA and recA are previously described. All experiments were conducted in at least three biological replicates, and relative expression levels were estimated according to Livak et al., using recA expression as reference.

[10] = tested on: E. coli MG1655; experiment: Intracellular gentamicin concentration with [3H]-gentamicin; format: cell-based, Escherichia coli; settings: gentamicin 5 μg/ml plus second drug
Protocol: Intracellular gentamicin was quantified by measuring [3H]-gentamicin (1 mCi/ml; Hartmann Analytic Corp.), as previously described. Overnight cultures of E. coli MG1655 (ther parental stain of BW25113) were diluted 1:1,000 into 5 ml LB and grown to OD595 nm˜0.1. [3H]-gentamicin was diluted in cold gentamicin to get a 5 mg/ml (0.1 mCi/ml) stock solution, which was then added to the culture at a final concentration of 5 μg/ml (0.1 μCi/ml), simultaneously with the second drug: Berberine (200 μg/ml), Erythromycin (15 μg/ml), Metformin (13000 μg/ml), Procaine (6000 μg/ml), Loperamide (400 μg/ml), Benzalkonium (5 μg/ml). […] Cultures were then incubated at 37° C. on a rotary shaker. At 0, 0.5, 1, 1.5 and 2 h time-points, 500 μl aliquots were removed and applied to a 0.45 μm-pore-size HAWP membrane filter (Millipore) pretreated with 1 ml of unlabeled gentamicin (250 μg/ml). Filters were washed with 10 ml of 1.5% NaCl, placed into counting vials, and dried for 30 min at 52° C. 8 ml of liquid scintillation were then added to the dried filters and vials were incubated overnight at room temperature before being counted for 5 min. Gentamicin uptake efficiency is expressed as total accumulation of gentamicin (ng) per 108 cells, and plotted here for the final timepoint (2 h) for simplicity.

CN(C)C(=O)C(CCN1CCC(O)(c2ccc(Cl)cc2)CC1)(c1ccccc1)c1ccccc1 [Loperamide, loperamide]
Effect on activity of colistin [1]: potentiated
Effect on activity of doxycycline [1]: potentiated
Effect on activity of colistin ([2]; MDR E. coli isolates): potentiated
Effect on activity of doxycycline ([2]; MDR E. coli isolates): potentiated
General effect in combinations [3]: general potentiating effect

CCN1CCN(C(=O)N[C@@H](C(=O)N[C@@H]2C(=O)N3[C@@H]2SC(C)(C)[C@@H]3C(=O)O)c2ccccc2)C(=O)C1=O [Piperacillin, piperacillin]
Growth inhibition reached by single drug [4]: did not reach 50% growth inhibition

CC(=O)Oc1ccccc1C(=O)O [aspirin, acetylsalicylic acid]
Effect on MIC of chloramphenicol [5]: increase
Effect on MIC of ciprofloxacin [5]: increase

Cn1c(=O)c2c(ncn2C)n(C)c1=O [caffeine]
Antagonism with ciprofloxacin in mutant [6]: resolved

COc1cc(/C=C/C(=O)CC(=O)/C=C/c2ccc(O)c(OC)c2)ccc1O [curcumin]
Antagonism with ciprofloxacin in mutant [6]: remain largely intact

C[n+]1ccc(-c2cc[n+](C)cc2)cc1 [paraquat]
Antagonism with ciprofloxacin in mutant [6]: resolved

CCN(CC)CCOC(=O)c1ccc(N)cc1 [procaine]
Effect on activity of doxycycline [1]: resensitized
Effect on activity of fusidic acid [1]: resensitized
Effect on activity of doxycycline ([2]; MDR E. coli isolates): resensitized
Effect on activity of fusidic acid ([2]; MDR E. coli isolates): resensitized
General effect in combinations [3]: general potentiating effect
Antibacterial activity / growth inhibition of the drug on its own [3]: did not inhibit bacterial growth on its own

CN[C@@H]1[C@H](O)[C@H](NC)[C@H]2O[C@@]3(O)C(=O)C[C@@H](C)O[C@H]3O[C@@H]2[C@H]1O [spectinomycin]
Spectinomycin MIC change upon addition of vanillin ([5]; 100 μg/ml vanillin, wildtype E. coli BW and knockouts of AcrAB-TolC members or MarA): decreases
MIC ([5]; BW25113, read-out: MIC of spectinomycin, E. coli, with vanillin (65 μg/ml)): ~15 mg/L
MIC ([5]; BW25113, read-out: MIC of spectinomycin, largely resistant E. coli, without vanillin): > 30 mg/L
Spectinomycin MIC change ([5]; deletion of mdfA): increased
Spectinomycin sensitivity (dose response) ([5]; overexpression of mdfA (pmdfA) vs E. coli BW, MIC does not change): increased spectinomycin sensitivity
Increase of spectinomycin MIC ([5]; with 500 μg/ml aspirin): ~3 fold
Decrease of spectinomycin MIC ([5]; with vanillin, mild overexpression of mdfA (pmdfA), comparing to MIC of combination in wildtype): ~2 fold

COc1cc(C=O)ccc1O [vanillin]
Effect on MIC of chloramphenicol [5]: increase
Effect on MIC of ciprofloxacin [5]: increase
AcrA protein levels [7]: increases
Effect on activity of spectinomycin ([2]; E. coli MDR isolates): potentiated
Antibacterial activity / growth inhibition of the drug on its own [3]: no antibacterial activity
Effect on intracellular spectinomycin concentration [8]: increased; also recorded: accumulation
marA expression [9]: overexpression

COc1ccc(CCN(C)CCCC(C#N)(c2ccc(OC)c(OC)c2)C(C)C)cc1OC (stereo not shown) [verapamil]
General effect in combinations [3]: general potentiating effect

benzalkonium
Effect on intracellular gentamicin concentration [10]: decreases
Antagonism with ciprofloxacin in mutant [6]: remain largely intact
